Data on four molecules can be found in patent US20040071768A1, “Compositions and methods for treating cancer” (Inex Pharmaceuticals Corporation, priority 1999, published 2004).

Series [1] deals with NCl H460 non small cell lung xenografts. Nature of the series: Multiple dose (q7dx3) anti-tumor activity, NCl H460 non small cell lung xenograft. The conditions noted are these: positive control. The procedure: Female NCr nude mice were injected intravenously (q7dx3, beginning day 7) via the lateral tail vein. […] Mitomycin C (⋄) was prepared in saline and injected iv (q4dx3) at a dose of 3 mg/kg/dose. Drug-to-lipid ratio was 0.3/1 (w/w). Data points represent median tumor volume (n=6).
(§1) The anti-tumor activity of multiple (q7d3) dose schedules of liposomal vinorelbine was evaluated in several human xenograft tumor models. The goal of this series of studies was to identify the benefits of encapsulation by evaluating a series of doses and determining the therapeutic index in several xenograft models. Models were selected based on the following criteria: (1) activity in the single dose studies, (2) a comprehensive literature review of vinca alkaloid efficacy, (3) a desire to include at least 2-3 models that represent the clinical use of vinorelbine, and (4) a desire to include models with a range of sensitivity to vinorelbine so that improvements resulting from the use of the liposome formulation might be identified. Based on these criteria, MX-1 and MDA-MB-435 breast models, the NCl-H460 NSCLC model and the HT-29 and DLD-1 colon models were chosen.
(§2) Therapeutic index (TI) is a parameter that quantifies the “safety factor” of a particular therapy. TI is a ratio of a toxicity parameter and a biological activity parameter. Therefore, a higher ratio represents a greater potential margin of safety. For these studies, TI is defined as follows: […]
(§3) The minimal effective dose (MED) was set according to NCl activity criteria as the dose resulting in an optimal % T/C of 40. This information was derived from Table 7.

Series [2] deals with MDA-MB-435 breast xenografts. The conditions noted are these: positive control. The procedure:
Female NCr nude mice were injected intravenously (q7dx3, beginning day 15) via the lateral tail vein. […] Paclitaxel (⋄) was prepared in […]/12.5% ethanol/75% saline and injected iv (q1dx5) at a dose of 15 mg/kg/dose. Drug-to-lipid ratio was 0.3/1 (w/w). Data points represent median tumor volume (n=6).
as §1, §2, §3

The test system of a further series is DLD-1 colon xenografts. The conditions noted are these: positive control. The procedure: Female NCr nude mice were injected intravenously (q7dx3) via the lateral tail vein on days indicated by an asterisk (*). […] Irinotecan (⋄) was prepared in saline and injected iv (q4dx3) at a dose of 90 mg/kg/dose. Drug-to-lipid ratio was 0.3/1 (w/w). Data points represent median tumor volume (n=6).
as §1, §2, §3

For series [3] the following is noted: adults, cited from earlier work.

Take `CO[C@@]12[C@H](COC(N)=O)C3=C(C(=O)C(C)=C(N)C3=O)N1C[C@@H]1N[C@@H]12` [Mitomycin C]: in series [1] (3 mg/kg/dose iv q4dx3), the “% T/C (optimal % T/C following final treatment)” value was determined as 5%; the “DRD (drug related deaths, n = 6)” value was 0; the “NCI Score” value was 1; the “T-C (tumor growth delay to 1000 mm^3)” value came out at 22.2. The “TF (tumor free animals at the end of study)” value in series [1] (3 mg/kg/dose iv q4dx3, n=6) is 0.
Turning to `CC(=O)O[C@H]1C(=O)[C@@]2(C)[C@H]([C@H](OC(=O)c3ccccc3)[C@]3(O)C[C@H](OC(=O)[C@H](O)[C@@H](NC(=O)c4ccccc4)c4ccccc4)C(C)=C1C3(C)C)[C@]1(OC(C)=O)CO[C@@H]1C[C@@H]2O` [Paclitaxel], in series [2] (15 mg/kg/dose iv q1dx5), the “% T/C (optimal % T/C following final treatment)” value is −55%, the “NCI Score” value worked out at 3 and the “T-C (tumor growth delay to 1000 mm^3)” value worked out at 36.9. Moreover, the “TF (tumor free animals at the end of study)” value in series [2] (15 mg/kg/dose iv q1dx5, n=6) is 0.
`CCc1c2c(nc3ccc(OC(=O)N4CCC(N5CCCCC5)CC4)cc13)-c1cc3c(c(=O)n1C2)COC(=O)[C@]3(O)CC` [Irinotecan]: in the series with DLD-1 colon xenografts (90 mg/kg/dose iv q4dx3), the “% T/C (optimal % T/C following final treatment)” value turned out to be 11%; the “DRD (drug related deaths, n = 6)” value is given as 0; the “NCI Score” value worked out at 1; the “T-C (tumor growth delay to 1000 mm^3)” value amounted to 17.2. The “TF (tumor free animals at the end of study)” value in the series on DLD-1 colon xenografts (90 mg/kg/dose iv q4dx3, n=6) is 0.
Consider `CC[C@]1(O)C[C@H]2CN(CCc3c([nH]c4ccccc34)[C@@](C(=O)OC)(c3cc4c(cc3OC)N(C=O)[C@H]3[C@@](O)(C(=O)OC)[C@H](OC(C)=O)[C@]5(CC)C=CCN6CC[C@]43[C@@H]65)C2)C1` [free vincristine, 22-oxovincaleukoblastine], for which, in series [3] (2-3 doses), the “total dose at which peripheral neuropathic effects usually begin” value is on record as 5 to 6 mg. For the same molecule, the “cumulative dose after which peripheral neuropathic effects are generally significant” value in series [3] (8-10 doses) was 15 to 20 mg.
